Source: patent US5620997A, “Isothiazolones” (Warner-Lambert Company, priority 1995, dated 1997)

Tests used:
[1] = target: T1, HIV-1 Nucleocapsid Protein (NCp7) (Human immunodeficiency virus type 1 group M subtype B, UniProt P12493); test: Fluorescence-based (TSQ) assay of zinc ejection from purified HIV-1 NCp7; assay type: biochemical; settings: 10 μM compound, 2.8 μM NCp7, 47 μM TSQ, pH 7.4, 26° C., 90 minutes
T1 construct: The NCp7 protein containing 2 Zn-fingers and 2 Zn ions
Source text: The compounds of the present invention cause the extrusion of zinc from the nucleocapsid protein (NCp7) of HIV-1. The NC protein is highly conserved among all retroviruses (South T., Blake P., et al., Biochemistry, 1990;;29:7786) and is essential for viral infectivity (Aldovini A. and Young R., J. Virology, 1990;64:1920 and Gorelick R., Nigida S., et al., J. Virology, 1990;64:3207). The zinc is normally held in NC proteins by 1 or 2 zinc fingers. In the case of HIV-1, 2 zinc fingers are present (Summers M., South T., et al., Biochemistry, 1990;29:329) and are involved specifically with the PSI site on viral RNA which controls the packaging of viral RNA. Interference of this packaging causes the formation of non-infectious virions (Dannull J., Surovoy A., et al., EMBO, 1994;13:1525). It has previously been shown that compounds that cause zinc extrusion have potent anti-HIV activity in multiple cell lines and against all retroviruses (Rice W., Schaeffer C., et al., Nature, 1993;361:473).
A fluorescence-based assay has been developed to monitor the ejection of zinc from purified HIV-1 NCp7. The fluorophore, N-(6-methoxy-8-quinolyl)-p-toluenesulfonamide (TSQ), has an increased fluorescent signal upon bonding zinc ion in solution. The NCp7 protein containing 2 Zn-fingers and 2 Zn ions is incubated with drug causing the extrusion of Zn ions. The released Zn is then sequestered by the TSQ and the increased fluorescence monitored relative to control. The assay was performed as follows: 10 μM compound was added to 2.8 μM NCp7 and 47 μM TSQ in 20 μL of pH 7.4 buffer at 26° C. for 90 minutes. Fluorescence (excitation 355 nm emission 400 nm) was monitored versus time. Controls were the NCp7 under assay conditions without drug, and apo NCp7 (no Zn) with drug. The % Zn extrusion was calculated based on the actual fluorescence measured divided by the fluorescence of all theoretical Zn extruded (5.6 μM)×100.
Table 1 below presents the results of testing several of the invention compounds in zinc extrusion assay described above. The compounds were evaluated for their ability to cause the extrusion of zinc from nucleocapsid protein NCp7 (expressed as % relative to control).

[2] = CEM cell assay, toxicity (growth inhibition); assay type: cell-based; settings: human, cem cells; Toxic concentration which inhibits the growth of cells 50% relative to control; read-out: CEM Cell Assay TC50
Experimental: T4 lymphocytes (CEM cell line) are exposed to HIV at a virus to cell ratio approximately 0.05, and plated along with noninfected control cells in 96-well microliter plates. Candidate agent is dissolved in dimethyl sulfoxide (unless otherwise noted), then diluted 1:200 in cell culture medium. Further dilutions (half-log10) are prepared before adding to an equal volume of medium containing either infected or noninfected cells. Cultures are incubated at 37° in a 5% carbon dioxide atmosphere for 6 or 7 days. The tetrazolium salt, XTT, is added to all wells, and cultures are incubated to allow formazan color development by viable cells J. National Cancer Institute, 1989;81:577-586. Individual wells are analyzed spectrophotometrically to quantitate formazan production, and in addition are viewed microscopically for detection of viable cells confirmation of protective activity. Drug-tested virus-infected cells are compared with drug-treated noninfected cells and with other appropriate controls (untreated infected and untreated noninfected cells, drug-contain wells without cells, etc.) on the same plate. Data are reviewed in comparison with other tests done at the same time and a determination about activity is made.

[3] = test system: HIV; test: CEM cell assay, anti-HIV activity (XTT, protection from viral cytopathic effects); assay type: cell-based; settings: Human immunodeficiency virus 1, CCRF-CEM; Effective concentration which protects cells from viral cytopathic effects
Source text: The test systems utilized to establish the cellular antiviral activity of the isothiazolones of Formula I are well recognized in the art and are routinely employed for such purpose. For example, the assay utilized to evaluate the compounds activity against the HIV virus is that employed by the U.S. National Cancer Institute as described by Weislow O. S., et al., J. Natl. Cancer Inst., 1989;81:577-586, incorporated herein by reference.
The procedure is designed to detect agents acting at any stage of the virus reproductive cycle. The assay basically involves the killing of T4 lymphocytes by HIV. Small amounts of HIV are added to cells, and at least two complete cycles of virus reproduction are necessary to obtain the required cell killing. Agents which interact with virions, cells, or virus gene-products to interfere with viral activities will protect cells from cytolysis. The system is automated in several features to accommodate large numbers of candidate agents, and is generally designed to detect anti-HIV activity. However, compounds which degenerate or are rapidly metabolized in the culture conditions may not show activity in this screen.
Yet another test system employed to determine antiviral activity is called the CEM cell assay.
T4 lymphocytes (CEM cell line) are exposed to HIV at a virus to cell ratio approximately 0.05, and plated along with noninfected control cells in 96-well microliter plates.
Candidate agent is dissolved in dimethyl sulfoxide (unless otherwise noted), then diluted 1:200 in cell culture medium. Further dilutions (half-log10) are prepared before adding to an equal volume of medium containing either infected or noninfected cells.
Cultures are incubated at 37° in a 5% carbon dioxide atmosphere for 6 or 7 days. The tetrazolium salt, XTT, is added to all wells, and cultures are incubated to allow formazan color development by viable cells J. National Cancer Institute, 1989;81:577-586. Individual wells are analyzed spectrophotometrically to quantitate formazan production, and in addition are viewed microscopically for detection of viable cells confirmation of protective activity.
Drug-tested virus-infected cells are compared with drug-treated noninfected cells and with other appropriate controls (untreated infected and untreated noninfected cells, drug-contain wells without cells, etc.) on the same plate. Data are reviewed in comparison with other tests done at the same time and a determination about activity is made.

[4] = target: T2, rabbit reticulocyte 15-LO (Oryctolagus cuniculus, UniProt P12530); test: Colorimetric Assay of 15-LO Inhibition; assay type: biochemical; settings: colorimetric method
T2 construct: rabbit reticulocyte 15-LO; from tissue; host or cells: rabbit reticulocytes
T2 sequence (P12530 1-663): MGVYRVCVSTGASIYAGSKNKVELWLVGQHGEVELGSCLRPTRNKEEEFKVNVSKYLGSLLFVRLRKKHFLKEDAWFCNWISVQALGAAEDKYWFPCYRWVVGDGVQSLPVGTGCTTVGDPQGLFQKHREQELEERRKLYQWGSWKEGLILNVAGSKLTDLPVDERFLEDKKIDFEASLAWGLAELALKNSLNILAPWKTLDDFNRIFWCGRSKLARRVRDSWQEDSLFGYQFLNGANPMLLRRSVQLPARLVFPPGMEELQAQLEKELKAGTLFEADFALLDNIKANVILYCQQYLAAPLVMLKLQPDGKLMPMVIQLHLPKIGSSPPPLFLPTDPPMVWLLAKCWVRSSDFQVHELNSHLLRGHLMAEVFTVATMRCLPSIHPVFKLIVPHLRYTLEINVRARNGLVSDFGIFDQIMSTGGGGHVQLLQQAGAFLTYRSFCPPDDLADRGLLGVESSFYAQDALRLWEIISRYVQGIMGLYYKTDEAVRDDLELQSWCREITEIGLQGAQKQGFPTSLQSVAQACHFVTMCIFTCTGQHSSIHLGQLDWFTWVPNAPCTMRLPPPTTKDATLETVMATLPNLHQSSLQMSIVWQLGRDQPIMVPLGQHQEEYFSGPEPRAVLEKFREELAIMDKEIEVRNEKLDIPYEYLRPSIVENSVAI
Experimental: The isothiazolones of Formula I are also effective for treating inflammation and atherosclerosis. A characteristic feature of atherosclerosis is the accumulation of cholesteryl ester engorged from foam cells. Foam cells are derived from circulating monocytes which invade artery walls in response to hypercholesterolemia, and mature into tissue macrophages. […] Specifically, representative compounds were evaluated by the methods described by Auerbach, et al., Analytical Biochemistry, 1992;201:375-380. Two in vitro assays were utilized, both utilizing rabbit reticulocyte 15-LO, and linoleic acid as substrate, to enzymatically produce a peroxide oxidation product known as 13(S)-HPODE. N-Benzoyl leucomethylene blue was utilized as a colorimetric reagent for detection and quantification of the peroxide formation. Also, HPLC was utilized to quantify the oxidation following incubation at 4° C. for 10 minutes.
Table 3 gives the concentration of compound required to inhibit 50% of the activity of 15-LO (IC50) when measured by the HPLC method of Auerbach, et al. Table 4 gives the percent inhibition of 15-LO activity when evaluated by the colorimetric method.

Compound | % Zn Extrusion Relative to Control [1] | CC50 [2] | EC50 [3] | inhibition at 10 µM [4]
CC[C@H](C)[C@@H](C(=O)O)n1sc2ccccc2c1=O [Example 2, [S-(R*,R*)]-3-Methyl-2-(3-oxo-3h-benzo[d]isothiazol-2-yl)pentanoic acid] | 30% | > 100 µM | 14 µM | 
CC(=O)NS(=O)(=O)c1ccc(-n2sc3ccccc3c2=O)cc1 [Example 3, N-Acetyl-4-(3-oxo-3h-benzo[d]isothiazol-2-yl)-benzenesulfonamide] |  |  |  | 75%
CC(C)C(C(=O)O)n1sc2ccccc2c1=O (stereo not shown) [Example 14, 3-Methyl-2-(3-oxo-3h-benzo[d]isothiazol-2-yl)-butanoic acid] | 71% | > 100 µM | 21 µM | 
O=C(O)CCCn1sc2ccccc2c1=O [Example 17, 4-(3-Oxo-2-h-benzo[d]isothiaz-2-yl) butanoic acid] | 78% | > 100 µM | 5.8 µM | 
CCN(CC)CCn1sc2nc(-c3ccccc3)ncc2c1=O [Example 21, 2-[2-(Diethylamino)ethyl]-6-phenyl-isothiazolo[5,4-d] pyrimidin-3(2H)-one] |  |  |  | 95%
O=C(O)Cc1ccc(-n2sc3ccccc3c2=O)cc1 [Example 25, 4-(3-Oxo-3h-benz-[d]isothiazol-2-yl)-phenyl acetic acid] | 89% | 69 µM | 5.8 µM | 
COc1ccc(-c2ccc3c(=O)n(CCN(C)C)sc3n2)cc1OC [Example 108] |  |  |  | 65%
CN(C)CCn1sc2nc3ccccc3cc2c1=O [Example 109] |  |  |  | 22%
